Data taken from US6489308B1, “Inhibitors of serine protease activity, methods and compositions for treatment of nitric-oxide-induced clinical conditions” (Trustees of University of Technology Corporation, priority 1999, dated 2002).
“Also recorded” adds a separate entry of the source.

Assays:
Format in all cases: cell-based
RAW 264.5 macrophages = test: NO release (nitrite, Greiss reagent) upon induction with LPS and γ-IFN in macrophagic cells; details: FIG. 1 / FIG. 4
NF-κB = test: Electrophoretic mobility shift assay of NF-κB induced by interleukin-18; details: incubation with IL-18, FIG. 3
[1] = tested on: herpes simplex virus (HSV); test: Herpes simplex virus replication; details: FIG. 7
cytomegalovirus (CMV) = test: Cytomegalovirus replication in infected RAW 264.5 macrophages; details: RAW 264.5 macrophages infected with CMV; FIG. 6
iNOS protein = test: Western blot of iNOS protein induction by LPS and γ-interferon in macrophagic cells; details: γ-IFN and LPS, FIG. 2
p-ERK = test: Western blot of p-ERK (p42/p44 MAP kinase); details: FIG. 5

Molecule	NO levels induced by γ-IFN and LPS (measured as NO2-) (RAW 264.5 macrophages)	induction of active NF-κB (NF-κB)	replication of HSV [1]	CMV replication (cytomegalovirus (CMV))	induction of iNOS protein (iNOS protein)	level and/or phosphorylation of p-ERK (p-ERK)
Cc1cccc(Cc2nnc(C(=O)C(NC(=O)[C@@H]3CCCN3C(=O)[C@@H](NC(=O)OCc3ccccc3)C(C)C)C(C)C)o2)c1 (stereo partly drawn) [CE-2072, benzyloxycarbonyl-L-valyl-N-[1-(2-[5-(3-methylbenzyl)-1,3,4-oxadiazolyl]carbonyl)-2-(S)-methylpropyl]-L-prolinamide, reference compound]	inhibits NO levels	inhibit the induction of active NF-κB	–	–	–	–
α1-antitrypsin: glycoprotein of MW 51,000 with 417 amino acids and 3 oligosaccharide side chains; naturally occurring serine protease inhibitor	efficiently block γ-IFN- and LPS-induced NO synthesis; also recorded: inhibits NO levels	inhibit the induction of active NF-κB	inhibits replication of HSV	blocks CMV replication	inhibits induction of iNOS protein	inhibits the level and/or phosphorylation of p-ERK
